Experimental data as given in article PMC6196558, “The nitrilase PtNIT1 catabolizes herbivore-induced nitriles in Populus trichocarpa” (BMC Plant Biology, 2018).

T1: PtNIT1 (Populus trichocarpa, UniProt A0A2Z4EGE4)
T1 construct: tag cleavage not mentioned
T1 sequence (A0A2Z4EGE4 1-377): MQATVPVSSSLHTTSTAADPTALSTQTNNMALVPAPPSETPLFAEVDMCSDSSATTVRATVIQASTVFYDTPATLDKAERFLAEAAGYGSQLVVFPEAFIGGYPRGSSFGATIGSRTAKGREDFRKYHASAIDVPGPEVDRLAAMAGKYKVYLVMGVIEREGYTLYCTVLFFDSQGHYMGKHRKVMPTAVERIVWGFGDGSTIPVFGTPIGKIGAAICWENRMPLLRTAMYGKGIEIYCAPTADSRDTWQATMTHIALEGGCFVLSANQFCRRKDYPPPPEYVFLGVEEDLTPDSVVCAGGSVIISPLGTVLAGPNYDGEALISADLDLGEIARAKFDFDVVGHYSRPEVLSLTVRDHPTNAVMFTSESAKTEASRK

B1: PtNIT1 (Populus trichocarpa) (protein)
chain: T1 sequence (A0A2Z4EGE4 1-377)
notes: tag cleavage not mentioned

How the values were obtained:
[1] = molecular target: T1, PtNIT1; experiment: LC-MS/MS product formation; type: biochemical; conditions: potassium phosphate pH 7.2, 32 °C (standard assay)
[2] = substrate: N#CCc1c[nH]c2ccccc12; experiment: LC-MS/MS product formation; type: biochemical, Populus trichocarpa; conditions: potassium phosphate pH 7.2, 32 °C (standard assay)

Row | Molecule | Km [1] [mM] | Km [2] [mM]
1 | N#CCc1ccccc1 [benzyl cyanide] | 24.7 ± 1.8 | 
2 | N#CC[C@H](N)C(=O)O [β-cyanoalanine] | 1.2 ± 0.1 | 
3 | B1 |  | 10.0 ± 1.3
